What was measured:
[1] = Hemodynamic variables during canine thrombosis protocol; format: in vivo, beagle dogs
Tongue bleeding time = format: in vivo, beagle dogs; settings: DDA 10, 30 or 50 mg/kg followed by rt-PA
Experimental: Tongue bleeding time (BT) was determined with the use of a SurgiCut™ (International Technidyne Corp, Edison, N.J.) device that makes a uniform incision 5 mm long and 1 mm deep on the upper surface of the tongue. The tongue lesion was blotted with filter paper every 20 sec until the transfer of blood to the filter paper was no longer apparent. The interval, from the time of the tongue incision until the time that blood was no longer transferred to the filter paper, was recorded as the tongue bleeding time.

SMILES: CC1=C(/C=C/C(C)=C/C=C/C(C)=C/C=C/C=C(C)/C=C/C=C(C)/C=C/C2=C(C)C(=O)C(OC(=O)CCC(=O)O)CC2(C)C)C(C)(C)CC(OC(=O)CCC(=O)O)C1=O (stereo not shown) [DDA, Disodium disuccinate astaxanthin]
- time for blood pressure to return to original values ([1]; DDA 50 mg/kg): ≤ 30 min
- transient decrease in arterial blood pressure ([1]; DDA 50 mg/kg, seen in 5 dogs): < 15%
- mean arterial blood pressure and heart rate throughout the protocol ([1]; all groups (DDA 10, 30, 50 mg/kg)): did not differ significantly
- tongue template bleeding time, baseline vs after drug treatment (Tongue bleeding time): similar

Reference: patent US8063101B2, “Carotenoid analogs and derivatives for the prevention of platelet aggregation” (Cardax Pharmaceuticals, Inc., priority 2007, dated 2011)
